Results on two molecules are retold here after publication PMC4076284, “A Characteristic Back Support Structure in the Bisphenol A-Binding Pocket in the Human Nuclear Receptor ERRγ” (PLoS ONE, 2014).

Assay [1] deals with T1, Lys430Ala-ERRγ mutant receptor (GST-fused LBD) (Homo sapiens, UniProt P62508, K430A). As to conditions: heterogeneous binding assay using [^3H]BPA.
Protocol: (§1) Wild-type and mutant ERRγ-LBD proteins were expressed as glutathione S-transferase (GST)-fused preparations in E. coli BL21 as described previously [1], [24], [25]. […] After loading the protein solution, the column was incubated for 1 h at 4°C, and then washed three times with PBS containing 0.5% (v/v) Triton X-100 and once with sonication buffer (50 mM Tris-HCl (pH 8.0), 50 mM NaCl, 1 mM EDTA, and 1 mM dithiothreitol). […] The protein concentrations were determined by the Bradford method [26].
(§2) Competitive binding assays were performed in the presence of GST-fused wild-type ERRγ-LBD or its mutants at the most appropriate concentration of each receptor. […] Radioactivity was determined on a liquid scintillation counter TopCount NXT (PerkinElmer Life Sciences Japan Co., Ltd., Tokyo, Japan). To estimate the binding affinity, the IC50 values (the concentrations for the half-maximal inhibition) were calculated from the dose-response curves evaluated by the nonlinear analysis program ALLFIT [30]. Each assay was performed at least three times.
The target in assay [2] is T2, His434Phe-ERRγ mutant receptor (GST-fused LBD) (Homo sapiens, UniProt P62508, H434F). As to conditions: heterogeneous competitive binding.
T2 sequence (P62508 222-458 H434F): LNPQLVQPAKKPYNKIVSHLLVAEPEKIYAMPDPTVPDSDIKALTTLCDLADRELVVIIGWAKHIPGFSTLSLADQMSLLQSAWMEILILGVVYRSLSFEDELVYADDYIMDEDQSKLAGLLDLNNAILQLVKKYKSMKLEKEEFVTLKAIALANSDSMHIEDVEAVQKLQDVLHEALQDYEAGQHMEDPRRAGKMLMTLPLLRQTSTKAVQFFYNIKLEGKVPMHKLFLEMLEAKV
Protocol: as §1, §2
Assay [3] deals with T3, Leu345Ile-ERRγ mutant receptor (GST-fused LBD) (Homo sapiens, UniProt P62508, L345I).
T3 construct: wild-type ERRγ-LBD encoding 222-458 residues; made in house; host or cells: E. coli BL21
T3 sequence (P62508 222-458 L345I limits assumed): as the sequence (P62508 222-458 H434F) above, with L124I, F213H counted along it
Nature of the assay: Competitive binding assay using [^3H]BPA.
Protocol: as §1, §2

Assay [4] addresses T4, Asn346Gly-ERRγ mutant receptor (GST-fused LBD) (Homo sapiens, UniProt P62508, N346G).
T4 construct: wild-type ERRγ-LBD encoding 222-458 residues; made in house; host or cells: E. coli BL21
Nature of the assay: Competitive binding assay using [^3H]BPA.
Protocol: as §1, §2

Assay [5] deals with T5, Asn346Tyr-ERRγ mutant receptor (GST-fused LBD) (Homo sapiens, UniProt P62508, N346Y).
T5 construct: wild-type ERRγ-LBD encoding 222-458 residues; made in house; host or cells: E. coli BL21
T5 sequence (P62508 222-458 N346Y): as the sequence (P62508 222-458 H434F) above, with N125Y, F213H counted along it
Nature of the assay: Competitive binding assay using [^3H]BPA.
Protocol: as §1, §2

Assay [6] deals with T6, Val313Ala-ERRγ mutant receptor (GST-fused LBD) (Homo sapiens, UniProt P62508, V313A).
T6 construct: wild-type ERRγ-LBD encoding 222-458 residues was generated by PCR; made in house; host or cells: E. coli BL21
T6 sequence (P62508 222-458 V313A): as the sequence (P62508 222-458 H434F) above, with V92A, F213H counted along it
Nature of the assay: Competitive binding assay using [^3H]BPA. Particulars: competitive binding (Table 3, BPA value from ref 24).
Protocol: as §1, §2

Assay [7] has as its target T7, Tyr330Ala-ERRγ mutant receptor (GST-fused LBD) (Homo sapiens, UniProt P62508, Y330A).
T7 construct: wild-type ERRγ-LBD encoding 222-458 residues was generated by PCR; made in house; host or cells: E. coli BL21
Nature of the assay: Competitive binding assay using [^3H]BPA.
Protocol: as §1, §2

For assay [8], the target named is T8, Tyr330Phe-ERRγ mutant receptor (GST-fused LBD) (Homo sapiens, UniProt P62508, Y330F).
T8 construct: wild-type ERRγ-LBD encoding 222-458 residues was generated by PCR; made in house; host or cells: E. coli BL21
T8 sequence (P62508 222-458 Y330F): as the sequence (P62508 222-458 H434F) above, with Y109F, F213H counted along it
Nature of the assay: Competitive binding assay using [^3H]BPA.
Protocol: as §1, §2

The subject of the next assay is ERRγ mutant receptors. Nature of the assay: [^3H]BPA saturation and/or competitive binding: ranges stated over several ERRγ mutants or both assays. As to conditions: for Activity decrements vs wild-type: competitive binding (Table 2). Details: species or system human. On the procedure:
The reaction mixture was incubated at 4°C for 2 h with the receptor proteins—GST-fused wild-type ERRγ-LBD or its mutants—in 100 µl of binding buffer [10 mM HEPES (pH 7.5), 50 mM NaCl, 2 mM MgCl2, 1 mM EDTA, 2 mM CHAPS, and 2 mg/ml γ-globulin]. The assay was performed with or without the addition of unlabelled BPA (final concentration of 1.0×10^-5 M) to quantify the specific and nonspecific binding. After incubation with 100 µl of 1% dextran-coated charcoal (DCC) (Sigma-Aldrich) in PBS (pH 7.4) for 10 min at 4°C, the DCC-absorbed free radio-ligand was removed by the direct vacuum filtration method using a 96-well filtration plate (MultiScreen^HTS HV, 0.45 µm pore size; Millipore, Billerica, MA, USA) for the bound/free separation. Radioactivity was determined on a liquid scintillation counter (LS6500; Beckman Coulter, Fullerton, CA, USA).
The saturation binding assay was performed at least three times.
Each assay was performed at least three times.

In assay [9] the target is T9, Ile310Ala-ERRγ mutant receptor (GST-fused LBD) (Homo sapiens, UniProt P62508, I310A).
T9 construct: wild-type ERRγ-LBD encoding 222-458 residues was generated by PCR; made in house; host or cells: E. coli BL21
T9 sequence (P62508 222-458 I310A limits assumed): as the sequence (P62508 222-458 H434F) above, with I89A, F213H counted along it
Particulars: BPA value re-collected from the previous report, read-out: Receptor binding potency IC50; cited from earlier work.

Assay [10] has as its target T6, Val313Ala-ERRγ mutant receptor (GST-fused LBD). Particulars: BPA value re-collected from the previous report, read-out: Receptor binding potency IC50; cited from earlier work.
The target of assay [11] is T10, Val313Leu-ERRγ mutant receptor (GST-fused LBD) (Homo sapiens, UniProt P62508, V313L).
T10 construct: wild-type ERRγ-LBD encoding 222-458 residues was generated by PCR; made in house; host or cells: E. coli BL21
T10 sequence (P62508 222-458 V313L limits assumed): as the sequence (P62508 222-458 H434F) above, with V92L, F213H counted along it
As to conditions: BPA value re-collected from the previous report, read-out: Receptor binding potency IC50; cited from earlier work.

Assay [12] has as its target GST-fused wild-type ERRγ-LBD (Homo sapiens, UniProt P62508). Nature of the assay: biochemical. Particulars: [^3H]BPA 5 nM, 4°C, 2 h.
Protocol: as §1, §2
Assay [13] concerns the target Leu342Val-ERRγ mutant receptor (GST-fused LBD) (Homo sapiens, UniProt P62508, L342V). Nature of the assay: biochemical.
Protocol: as §1, §2
The target of assay [14] is Leu342Ile-ERRγ mutant receptor (GST-fused LBD) (Homo sapiens, UniProt P62508, L342I). Nature of the assay: biochemical.
Chain of Leu342Ile-ERRγ mutant receptor (GST-fused LBD) (P62508 222-458 L342I limits assumed): as the sequence (P62508 222-458 H434F) above, with L121I, F213H counted along it
Protocol: as §1, §2
Assay [15] deals with Leu345Ala-ERRγ mutant receptor (GST-fused LBD) (Homo sapiens, UniProt P62508, L345A). Nature of the assay: biochemical.
Chain of Leu345Ala-ERRγ mutant receptor (GST-fused LBD) (P62508 222-458 L345A limits assumed): as the sequence (P62508 222-458 H434F) above, with L124A, F213H counted along it
Protocol: as §1, §2
In assay [16] the target is Leu345Val-ERRγ mutant receptor (GST-fused LBD) (Homo sapiens, UniProt P62508, L345V). Nature of the assay: biochemical.
Chain of Leu345Val-ERRγ mutant receptor (GST-fused LBD) (P62508 222-458 L345V limits assumed): as the sequence (P62508 222-458 H434F) above, with L124V, F213H counted along it
Protocol: as §1, §2
The target of assay [17] is Asn346Ala-ERRγ mutant receptor (GST-fused LBD) (Homo sapiens, UniProt P62508, N346A). Nature of the assay: biochemical.
Chain of Asn346Ala-ERRγ mutant receptor (GST-fused LBD) (P62508 222-458 N346A): as the sequence (P62508 222-458 H434F) above, with N125A, F213H counted along it
Protocol: as §1, §2
The target of assay [18] is Asn346Gln-ERRγ mutant receptor (GST-fused LBD) (Homo sapiens, UniProt P62508, N346Q). Nature of the assay: biochemical.
Chain of Asn346Gln-ERRγ mutant receptor (GST-fused LBD) (P62508 222-458 N346Q): as the sequence (P62508 222-458 H434F) above, with N125Q, F213H counted along it
Protocol: as §1, §2
The target in assay [19] is Ile349Ala-ERRγ mutant receptor (GST-fused LBD) (Homo sapiens, UniProt P62508, I349A). Nature of the assay: biochemical.
Chain of Ile349Ala-ERRγ mutant receptor (GST-fused LBD) (P62508 222-458 I349A limits assumed): as the sequence (P62508 222-458 H434F) above, with I128A, F213H counted along it
Protocol: as §2
The target in assay [20] is Ile349Val-ERRγ mutant receptor (GST-fused LBD) (Homo sapiens, UniProt P62508, I349V). Nature of the assay: biochemical.
Chain of Ile349Val-ERRγ mutant receptor (GST-fused LBD) (P62508 222-458 I349V limits assumed): as the sequence (P62508 222-458 H434F) above, with I128V, F213H counted along it
Protocol: as §2
Assay [21] concerns the target Ile349Leu-ERRγ mutant receptor (GST-fused LBD) (Homo sapiens, UniProt P62508, I349L). Nature of the assay: biochemical.
Protocol: as §2
The target of assay [22] is T1, Lys430Ala-ERRγ mutant receptor (GST-fused LBD). Nature of the assay: biochemical.
Protocol: as §1, §2
Assay [23] addresses T2, His434Phe-ERRγ mutant receptor (GST-fused LBD). Nature of the assay: biochemical.
Protocol: as §1, §2
The mark [24] stands for this setting: read-out: Receptor binding potency IC50.

T7 sequence (P62508 222-458 Y330A): as the sequence (P62508 222-458 H434F) above, with Y109A, F213H counted along it
Chain of GST-fused wild-type ERRγ-LBD (P62508 222-458): as the sequence (P62508 222-458 H434F) above, with F213H counted along it
T4 sequence (P62508 222-458 N346G): as the sequence (P62508 222-458 H434F) above, with N125G, F213H counted along it
T1 sequence (P62508 222-458 K430A): as the sequence (P62508 222-458 H434F) above, with K209A, F213H counted along it
Chain of Leu342Val-ERRγ mutant receptor (GST-fused LBD) (P62508 222-458 L342V limits assumed): as the sequence (P62508 222-458 H434F) above, with L121V, F213H counted along it
Chain of Ile349Leu-ERRγ mutant receptor (GST-fused LBD) (P62508 222-458 I349L): as the sequence (P62508 222-458 H434F) above, with I128L, F213H counted along it

As for `CC/C(=C(\c1ccc(O)cc1)c1ccc(OCCN(C)C)cc1)c1ccccc1` [4-OHT, 4-hydroxytamoxifen], in assay [1], the “Reinforced binding potency vs wild-type” value is reported as “about 40%”. Further, the “Reduction in receptor-binding potency vs wild-type” value in [2] is “more than 40 fold”.
A word on the IC50: it is the concentration that gives 50% inhibition. Take `CC(C)(c1ccc(O)cc1)c1ccc(O)cc1` [BPA, bisphenol A]: the “Decrease in binding vs wild-type” value in [3] (Leu345Ile mutant, homologous competitive binding) was “approximately 30 fold”. The IC50 in assay [3] (setting [24]) was 0.158 ± 0.0198 µM; in assay [4] (setting [24]), 0.0424 ± 0.00544 µM; in [5] (setting [24]) it was 0.0452 ± 0.00891 µM; in [7] (setting [24]), 0.361 ± 0.0393 µM; in assay [8] (setting [24]), 0.0161 ± 0.00058 µM; in assay [9] it was 0.0219 ± 0.00099 µM. Further, the IC50 in assay [10] was 0.0268 ± 0.00212 µM; in assay [11], 0.016 ± 0.00141 µM; in assay [12] (Receptor binding potency IC50, wild-type ERRγ (Table 2)), 0.00496 ± 0.00071 µM; in [12] (Receptor binding potency IC50, wild-type ERRγ (Table 3, back support series)), 0.00564 ± 0.00017 µM; in assay [13], 0.0347 ± 0.00538 µM; in [14] it was 0.0245 ± 0.00453 µM. The 50% inhibitory concentration (IC50) was found to be 0.0606 ± 0.0112 µM in [15]; 0.154 ± 0.0175 µM in assay [16]; 0.0201 ± 0.00341 µM in assay [17]; 0.0561 ± 0.00742 µM in [18]; 0.0201 ± 0.00324 µM in assay [19]; 0.0117 ± 0.0015 µM in assay [20]. The IC50 in [21] came out at 0.0104 ± 0.00064 µM; in assay [22], 0.0097 ± 0.00037 µM; in assay [23], 0.0137 ± 0.00066 µM. In addition, the “Binding affinity relative to the wild-type ERRγ (IC50)” value in assay [4] (Asn346Gly mutant, homologous competitive binding) is recorded as “ca. 12%”. Moreover, the “Reduction in binding affinity vs wild-type” value in [5] (Asn346Tyr mutant, competitive binding) was “approximately 9 fold”. Further, the “Reduction in binding affinities vs wild-type” value in assay [6] is “approximately 5 fold”. The “Reduction in IC50 value vs wild-type” value in assay [7] (Tyr330Ala mutant, homologous competitive binding) is listed as “more than 60 fold”; in [8] (Tyr330Phe mutant, homologous competitive binding), “approximately 3 fold”; with ERRγ mutant receptors (Leu342Val and Leu342Ile mutants, homologous competitive binding (Table 2)) it was 5–7 fold. Also, the “Reduced binding affinity vs wild-type” value with ERRγ mutant receptors (Asn346Ala mutant, saturation and competitive binding (Tables 1 and 2)) is given as 2–4 times. Besides, the “Reduction in the affinity vs wild-type” value in the assay on ERRγ mutant receptors (Asn346Gln mutant, saturation and competitive binding (Tables 1 and 2)) is 3-10 fold. The “Activity decrements vs wild-type” value in the assay with ERRγ mutant receptors (Asn346 mutant receptors (Ala, Gly, Gln, Tyr)) was 4.0–11.3 times; with ERRγ mutant receptors (Ile349Val and Ile349Leu mutants) it was 110-135%. In the assay with ERRγ mutant receptors (Ile349Ala mutant, saturation and competitive binding (Tables 1 and 2)), the “Reduction in affinity vs wild-type” value was 3-4 fold. The “Reduction in the binding affinity vs wild-type” value in the assay with ERRγ mutant receptors (Leu342Val and Leu342Ile mutants, saturation binding (Table 1)) is 3–4 fold.
